Laboratory results reported in patent publication EP0429333B1, “Process for producing oxazopyrroloquinolines, novel oxazopyrroloquinolines, and use of oxazopyrroloquinolines” (priority 1989, dated 1991).

What was measured:
[1] = test system: carbon tetrachloride (CCl4)-induced liver diseases; assay: Pharmacological activity on carbon tetrachloride-induced liver diseases; format: in vivo, SD rats; conditions: CCl4 1 ml/kg rat; for GPT: Table 26: CCl4 only 1521, no administration 24; for Total bilirubin: Table 26: CCl4 only 1.5, no administration 0.9; for GOT: Table 26: CCl4 only 3266, no administration 140
Method: Twentyfive SD rats (male, 7 weeks old, body weight: about 220 g; supplied by Japan Charles River Co.) were divided to five groups (A-E) each consisting of five rats.
All rats were fasted for 16 hours and 1.1 ml of solutions containing 0.4 mg/ml, 1.0 mg/ml and 2.0 mg/ml of OPQ were intraperitoneally administered to the rats of groups C, D and E, respectively and furthermore, after 40 minutes, OPQ in the same dosage as above was intraperitoneally administered, respectively. In these cases, OPQ was used as a solution in physiological saline. To the rats of group B was intraperitoneally administered 1.1 ml of physiological saline in place of the OPQ solution.
Furthermore, after 20 minutes, 2.2 ml of 10 % carbon tetrachloride solution (in olive oil) was administered to stomach of the rats of groups B-E. Neither OPQ nor carbon tetrachloride was administered to the rats of group A.
After 24 hours from administration of carbon tetrachloride, blood was collected from abdominal aorta and serum was obtained by centrifugal separation.
GPT, GOT and amount of total bilirubin were measured by clinical examination reagent (trademark: FUJI Dry Chemslide manufactured by Fuji Photo Film Co., Ltd.). The results are shown in Table 26 by average value of five rats.

peritoneal macrophage = assay: Test on macrophage-chemotaxis after intraperitoneal administration; format: in vivo, C3H/He mice; conditions: for (2) Chemotaxis factor was present: 50 % zymosan treated serum, no administration 68; for (2) - (1) Chemotaxied macrophage: no administration 58; for Relative activity of group (%): no administration = 100; for (1) Chemotaxis factor was not present: total number of chemotaxied macrophages at 3 points, no administration 10
Method: Thirtytwo C3H/He mice (male, 7 weeks old, average body weight 20 g, supplied by Japan Charles River Co.) were divided into 4 groups (A - D) of 8 mice each.
A solution of OPQ in physiological saline of pH 7.0 was intraperitoneally administered to each mouse 7 times, namely, on the 1st day, 2nd day, 3rd day, 4th day, 5th day, 6th day and 7th day. Dosage for one administration per one mouse was as follows: That is, 0.2 ml of the solution containing 0.2 mg/ml of OPQ for group B, 0.2 ml of the solution containing 0.5 mg/ml of OPQ for group C, 0.2 ml of the solution containing 1.0 mg/ml of OPQ for group D and 0.2 ml of physiological saline for group A.
On the 8th day from starting of the experiment, the mice were anesthetized with ether and blood was drawn from carotid artery and 5 ml of cold Hanks solution was intraperitoneally injected and exudate cells for the abdominal cavity were collected. Exudate cells for the abdominal cavity of respective groups were gathered, washed three times with cold Hanks solution and suspended in RPMI medium at 5 x 10^5 cells/ml and macrophage-chemotaxis was measured. 50 % zymosan treated serum was used as chemotaxis factor and examination was conducted at three points for each sample. Number of chemotaxied macrophage was measured on microscope and 13 visual fields was examined for one point and the results are shown in Table 2. The value in the table is a total number of chemotaxied macrophages at 3 points for each sample. Preparation of Hanks solution and RPMI medium will be explained below.
Test on macrophage-chemotaxis was conducted in the same manner as in Example 36 except that hydroxymethyl OPQ was intraperitoneally administered to each mouce 3 times of the 1st day, the 2nd day and the 3rd day in the following dosage for one administration per one mouse: 0.2 ml of hydroxymethyl OPQ solution containing 0.5 mg/ml of hydroxymethyl OPQ for group B, 0.2 ml of the solution containing 1.0 mg/ml of hydroxymethyl OPQ for group C, and 0.2 ml of the solution containing 1.5 mg/ml of hydroxymethyl OPQ for group D and exudate cells for the abdominal cavity were collected on the 4th day from starting of experiment.
In Examples 36 - 40, macrophage activity was examined according to chemotaxis of peritoneal macrophage (literature 1) and activity of T cell and that of B cell were examined according to blast transformation reaction using concanavalin A and lipopolysaccharide, (LPS) as mitogen (literature 2). Literature 1: "Function of Macrophage and Method of Measurement of Function", pages 61-65 1985), edited by Educational Committee of Japan Bacteriological Society and published from Saikon Shuppan Co.) Literature 2: "New Method of Searching of Function of Lymphocytes", pages 350-355 (1987) edited by Junichi Yada and Michio Fujiwara and published from Chugai Igaku Co.

[2] = test system: D-galactosamine-induced liver diseases; assay: Pharmacological effect on D-galactosamine-induced liver diseases; format: in vivo, SD rats; conditions: intraperitoneally twice, 1.2 ml of 0.4, 1.0, 2.0 or 3.0 mg/ml; serum 23 hours after D-galactosamine
Method: Thirty SD rats (male, 7 weeks old, body weight: about 240 g; supplied by Japan Charles River Co.) were divided to six groups (A-F) each consisting of five rats. All rats were fasted for 18 hours and 1.2 ml of solutions containing 0.4 mg/ml, 1.0 mg/ml, 2.0 mg/ml, and 3.0 mg/ml of OPQ were intraperitoneally administered to rats of groups C, D, E and F, respectively, and furthermore, after lapse of 40 minutes, OPQ in the same doses as above were intraperitoneally administered to the rats, respectively. In these cases, the OPQ was dissolved in physiological saline and administered to the rats. For the rats of group B, 1.2 ml of physiological saline was intraperitoneally administered in place of the OPQ solution.
Furthermore, after lapse of 20 minutes, 1.2 ml of a solution containing 0.2 mg/ml of D-galactosamine was subcutaneously injected to the rats of groups B-F. Neither OPQ nor D-galactosamine was administered to the rats of group A.
After lapse of 23 hours from administration of D-galactosamine, blood was collected from abdominal aorta and serum was obtained by centrifugal separation.
GPT, GOT and total amount of bilirubin were measured by clinical examination reagent (trademark: FUJI DRYCHEMSLIDE manufactured by Fuji Photo Film Co., Ltd.). The results are shown in Table 28 by average value of five rats.

[3] = 2 mg/kg rat twice intraperitoneally
[4] = 5 mg/kg rat twice intraperitoneally
[5] = 10 mg/kg rat twice intraperitoneally
[6] = 2 mg/kg mouse x 7 days intraperitoneally
[7] = 5 mg/kg mouse x 7 days intraperitoneally
[8] = 10 mg/kg mouse x 7 days intraperitoneally

O=C(O)c1cc(C(=O)O)c2c(n1)c1ncoc1c1cc(C(=O)O)[nH]c12 [OPQ, oxazopyrroloquinoline]
GPT ([1]; 2 mg/kg rat twice intraperitoneally, serum after 24 hours): 1057 U/l | Total bilirubin [1, 3]: 1.2 mg/dL | GOT [1, 3]: 2402 U/l | Total bilirubin [1, 4]: 1.2 mg/dL | GPT [1, 4]: 553 U/l | GOT [1, 4]: 1892 U/l | Total bilirubin [1, 5]: 1.1 mg/dL | GPT [1, 5]: 650 U/l | GOT [1, 5]: 1907 U/l | (2) Chemotaxis factor was present (peritoneal macrophage; [6]): 107 | (2) - (1) Chemotaxied macrophage (peritoneal macrophage; [6]): 96 | Relative activity of group (%) (peritoneal macrophage; [6]): 166% | (1) Chemotaxis factor was not present (peritoneal macrophage; [6]): 11 | (2) Chemotaxis factor was present (peritoneal macrophage; [7]): 96 | (2) - (1) Chemotaxied macrophage (peritoneal macrophage; [7]): 87 | Relative activity of group (%) (peritoneal macrophage; [7]): 150% | (1) Chemotaxis factor was not present (peritoneal macrophage; [7]): 9 | (2) Chemotaxis factor was present (peritoneal macrophage; [8]): 180 | (2) - (1) Chemotaxied macrophage (peritoneal macrophage; [8]): 173 | Relative activity of group (%) (peritoneal macrophage; [8]): 298% | (1) Chemotaxis factor was not present (peritoneal macrophage; [8]): 7 | GPT, GOT and total amount of bilirubin which increased by administration of D-galactosamine [2]: all sharply decreased
